Experimental findings from patent US20150266836A1, “AROMATIC SULFIDE COMPOUNDS AND METHODS AND USE THEREOF” (The Regents of the University of California, priority 2014, published 2015) are described below.

What is called melting point is the temperature of the solid-liquid transition.

pEC50: −log10 of the molar value.

For one data set, the system named is MCF-7 breast cancer cell line. Briefly: Proliferation-based anti-breast-cancer assay (CyQUANT Cell Proliferation Assay) against MCF-7 cells. The conditions noted are these: Homo sapiens, MCF7, dose-response, 10 concentrations serially diluted from 120 μM, DMEM 2% FBS, normalized to DMSO vehicle, read-out: inhibition of MCF-7 cell proliferation, EC50. How it is done:
Biological experiments were performed according to a modified procedure by Sigman et al.
MCF-7 cells were maintained in DMEM/high glucose supplemented with 10% FBS, L-glutamine, and penicillin/streptomycin. Experiments with MCF-7 cells were performed in DMEM/high glucose supplemented with 2% FBS, L-glutamine, and penicillin/streptomycin. MCF-10A cells were maintained in standard medium according to a modified recipe by Brugge et al. DMEM/F12 supplemented with 5% horse serum, 10 μg/mL of human insulin, 0.5 μg/mL of hydrocortisone, 10 ng/mL of EGF, 100 ng/mL of cholera toxin, and penicillin/streptomycin. Experiments with MCF-10A cells were performed in the same medium.
MCF-7 cells were centrifuged in 1×PBS for 20 min, and then the pellet was resuspended in DMEM supplemented with 10% FBS and filtered through a 40 μm nylon cell strainer (Fisher Scientific) to prevent clumping. The cells were seeded at 1500 cells per well in 96-well flat bottom plates suitable for fluorimetry, using 175 μL per well of DMEM supplemented with 10% FBS, and grown for 24 h in 5% CO2 at 37° C. The compounds (including the faslodex positive control) were dissolved in molecular biology grade DMSO to achieve a 3.5 mM stock solution and then sterile filtered through a 0.45 μm PVDF syringe filter unit (Fisher Scientific). The 3.5 mM stock solutions were subsequently diluted to a final concentration of 10 μM in DMEM supplemented with 2% FBS. Additionally, the corresponding DMSO vehicle control was diluted using the same medium.
After 24 h of growth, the cells were treated by replacing the normal media with fresh media containing the individual compounds or vehicle control (day 0). The outer rows of wells were not used to eliminate the possibility of effects due to evaporation of media. The cells were incubated with compound for 48 h and then treated again by aspirating the media and adding fresh media containing the compounds and controls (day 2). This procedure was repeated after an additional 48 h (day 4). After incubating a final 24 h, the 96-well plates were rinsed with 1×PBS, blotted dry, and then frozen at −78° C. overnight (day 5). On day 6, cell proliferation was measured using the fluorescence-based CyQUANT Cell Proliferation Assay Kit (Invitrogen).
Fluorimetry analysis was performed according to a modified procedure by McGowan et al. Cells were stained with 200 μL/well of 1× CyQUANT GR dye in cell lysis buffer for 10 min in the dark at room temperature and quantified by fluorimetry at 535 nm with 485 nm excitation. The fluorescence values were normalized to the DMSO vehicle control. The normalized values were plotted as an average±standard deviation of 6 wells per compound.
MCF-7 cells were centrifuged in 1×PBS for 20 min, and then the pellet was resuspended in DMEM supplemented with 10% FBS and filtered through a 40 μm nylon cell strainer (Fisher Scientific) to prevent clumping. The cells were seeded at 1500 cells per well in 96-well flat bottom plates suitable for fluorimetry, using 175 μL, per well of DMEM supplemented with 10% FBS, and grown for 24 h in 5% CO2 at 37° C. The compounds 19 and 25 were dissolved in molecular biology grade DMSO to achieve a 42 mM stock and then sterile filtered through a 0.45 μm PVDF syringe filter unit (Fisher Scientific). […]
Addition of compounds was performed as specified above for days 0-6. […] The fluorescence values were normalized to the DMSO vehicle controls corresponding to each concentration.
Regarding `c1ccc(Sc2nnc(-c3ccccc3)o2)cc1` [Compound 19, 2-Phenyl-5-(phenylthio)-1,3,4-oxadiazole], the pEC50 was 5.10.
Same read-out and setting: as for `COc1cc(Sc2nc3ccccc3o2)cc(OC)c1OC` [Compound 25, 2-(3,4,5-Trimethoxyphenylthio)benzoxazole], the figure is 5.35.

Still in this data set, the particulars now being: compounds at 10 μM, compared to faslodex (ICI 182,780), FIG. 1.
In the case of `c1ccc(Sc2nc3ccccc3s2)cc1` [Compound 15, 2-Phenylthiobenzothiazole], the “anticancer activity: inhibition of MCF-7 cell proliferation (result in words)” value (shortened to “anticancer activity: inhibition”) is “inactive”.
Turning to `c1ccc(Sc2nc3ccccc3o2)cc1` [Compound 16, 2-Phenylthiobenzoxazole], the “anticancer activity: inhibition” value is “inactive”.
Turning to `COc1cc(Sc2nnc(-c3ccccc3)o2)cc(OC)c1OC` [Compound 27, 2-Phenyl-5-(3,4,5-trimethoxyphenylthio)-1,3,4-oxadiazole], the “anticancer activity: inhibition” value is given as “performed poorly”.

System in a further data set: not given
Experiment: not given
Details: not given
As for `Fc1c(F)c(F)c(Sc2ccccc2)c(F)c1F` [Compound 11, (Perfluorophenyl)(phenyl)sulfane], the melting point is 45 to 48 °C.
Still for that read-out and setting: the figure for `c1ccc(Sc2nnnn2-c2ccccc2)cc1` [Compound 18, 1-Phenyl-5-(phenylthio)-1H-tetrazole] is 129 to 133 °C; for `N#Cc1cccc(Sc2ncccn2)c1` [Compound 23, 3-(Pyrimidin-2-ylthio)benzonitrile] it is 71 to 73 °C; for `COc1cc(Sc2ncccn2)cc(OC)c1OC` [Compound 24, 2-(3,4,5-Trimethoxyphenylthio)pyrimidine] it is 103 to 104 °C.
`COc1cc(Sc2nc3ccccc3o2)cc(OC)c1OC` [Compound 25, 2-(3,4,5-Trimethoxyphenylthio)benzoxazole] showed a melting point of 129 to 130 °C.
For the molecule `COc1cc(Sc2nnnn2-c2ccccc2)cc(OC)c1OC` [Compound 26, 1-Phenyl-5-(3,4,5-trimethoxyphenylthio)-1H-tetrazole], the melting point lay in the range of 110 to 111 °C.
`COc1cc(Sc2nnc(-c3ccccc3)o2)cc(OC)c1OC` [Compound 27, 2-Phenyl-5-(3,4,5-trimethoxyphenylthio)-1,3,4-oxadiazole] had a melting point of 142 °C.
